Test results reported in ChEMBL document CHEMBL1144403, “Novel immunomodulator FTY720 is phosphorylated in rats and humans to form a single stereoisomer. Identification, chemical proof, and biological characterization of the biologically active species and its enantiomer” (J Med Chem, 2005).

Tests used:
Format in all cases: functional, cell-based
[1] = target: T1, Sphingosine 1-phosphate receptor 4 (Homo sapiens, UniProt O95977); assay: Agonism of human S1P-4 receptor expressed in CHO cells, 90-120 min in pH 7.4 using [35S]GTP-gamma-S as radioligand
T1 sequence (O95977 whole entry): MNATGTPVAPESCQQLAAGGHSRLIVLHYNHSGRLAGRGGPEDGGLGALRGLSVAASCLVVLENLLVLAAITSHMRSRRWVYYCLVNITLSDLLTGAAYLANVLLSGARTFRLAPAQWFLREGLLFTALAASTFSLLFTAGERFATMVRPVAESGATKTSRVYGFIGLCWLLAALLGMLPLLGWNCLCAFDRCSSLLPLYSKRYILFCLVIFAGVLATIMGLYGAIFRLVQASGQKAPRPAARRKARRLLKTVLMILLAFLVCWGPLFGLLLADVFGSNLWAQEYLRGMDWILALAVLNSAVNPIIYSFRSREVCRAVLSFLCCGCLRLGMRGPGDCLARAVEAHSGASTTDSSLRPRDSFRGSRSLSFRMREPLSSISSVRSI

[2] = target: Sphingosine 1-phosphate receptor 5 (Homo sapiens, UniProt Q9H228); assay: Agonism of human S1P-5 receptor expressed in CHO cells, 90-120 min in pH 7.4 using [35S]GTP-gamma-S as radioligand
[3] = target: Sphingosine 1-phosphate receptor 2 (Homo sapiens, UniProt O95136); assay: Agonism of human S1P-2 receptor expressed in CHO cells, 90-120 min in pH 7.4 using [35S]GTP-gamma-S as radioligand
[4] = target: Sphingosine 1-phosphate receptor 3 (Homo sapiens, UniProt Q99500); assay: Agonism of human S1P-3 receptor expressed in CHO cells, 90-120 min in pH 7.4 using [35S]GTP-gamma-S as radioligand
Sequence of Sphingosine 1-phosphate receptor 3 (Q99500 whole entry): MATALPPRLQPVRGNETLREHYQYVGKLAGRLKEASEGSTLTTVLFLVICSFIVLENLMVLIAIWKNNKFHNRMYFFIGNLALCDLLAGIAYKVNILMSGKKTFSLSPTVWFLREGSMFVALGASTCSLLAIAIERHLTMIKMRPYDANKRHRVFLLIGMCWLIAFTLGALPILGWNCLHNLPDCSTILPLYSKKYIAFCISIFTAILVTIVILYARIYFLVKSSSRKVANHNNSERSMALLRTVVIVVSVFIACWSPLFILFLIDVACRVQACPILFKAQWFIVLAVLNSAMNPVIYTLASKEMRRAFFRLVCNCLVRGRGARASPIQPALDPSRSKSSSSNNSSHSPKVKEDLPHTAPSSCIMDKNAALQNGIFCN

Sequence of Sphingosine 1-phosphate receptor 2 (O95136 whole entry): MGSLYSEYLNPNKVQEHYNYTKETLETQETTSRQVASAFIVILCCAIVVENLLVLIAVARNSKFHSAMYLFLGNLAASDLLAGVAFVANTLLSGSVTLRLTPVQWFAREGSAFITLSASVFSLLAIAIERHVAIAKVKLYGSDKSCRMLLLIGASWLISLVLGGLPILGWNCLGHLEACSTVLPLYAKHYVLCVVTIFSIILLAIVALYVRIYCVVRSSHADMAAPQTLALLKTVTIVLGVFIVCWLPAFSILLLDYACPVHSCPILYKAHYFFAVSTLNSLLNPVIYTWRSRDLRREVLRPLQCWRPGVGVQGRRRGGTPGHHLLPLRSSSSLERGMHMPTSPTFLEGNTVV
Sequence of Sphingosine 1-phosphate receptor 5 (Q9H228 whole entry): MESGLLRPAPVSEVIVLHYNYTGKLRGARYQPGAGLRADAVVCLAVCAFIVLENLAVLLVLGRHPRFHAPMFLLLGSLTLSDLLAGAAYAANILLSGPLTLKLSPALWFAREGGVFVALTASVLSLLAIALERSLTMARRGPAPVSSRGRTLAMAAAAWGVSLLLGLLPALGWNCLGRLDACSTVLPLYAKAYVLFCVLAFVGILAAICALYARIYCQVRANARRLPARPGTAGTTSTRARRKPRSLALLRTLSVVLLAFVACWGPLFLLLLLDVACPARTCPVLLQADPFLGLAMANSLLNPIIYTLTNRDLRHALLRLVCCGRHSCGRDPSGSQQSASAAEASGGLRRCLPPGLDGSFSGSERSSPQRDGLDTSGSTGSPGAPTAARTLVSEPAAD

In the case of `CCCCCCCCc1ccc(CC[C@@](N)(CO)COP(=O)(O)O)cc1`, the EC50 [1] is reported as 80.1 nM.

In the case of `CCCCCCCCc1ccc(CCC(N)(CO)COP(=O)(O)O)cc1` (racemic), the EC50 [1] is reported as 2.4 nM.

`CCCCCCCCc1ccc(CCC(N)(CO)CO)cc1` [FINGOLIMOD] was tested, and the EC50 [1] was over 10000 nM, the EC50 [2] was over 10000 nM and the EC50 [3] was over 10000 nM. It also gave an EC50 [4] of over 10000 nM.

In the case of `CCCCCCCCc1ccc(CC[C@](N)(CO)COP(=O)(O)O)cc1` [FTY720-P], the EC50 [1] is reported as 0.6 nM.
